Test results as given in patent publication US20220347167A1, “A NEW TREATMENT FOR MEIBOMIAN GLAND DYSFUNCTION” (The Schepens Eye Research Institute, Inc., priority 2019, published 2022).

Experiments:
Format in all cases: cell-based, human
HIF1α = HIF1α expression in IHMGECs by western blot; set-up: HIF1α accumulation in IHMGECs, combination of Roxa and low O2: dose or concentration left out as unconfirmed
Method: Authenticated IHMGECs were grown and passaged in keratinocyte serum-free medium (KSFM) with 5 ng/mL epidermal growth factor (EGF) and 50 μg/mL bovine pituitary extract (BPE) (Thermo Fisher Scientific, Waltham, Mass.) under 21% O2 (normoxia) [Liu et al. (2010) Investigative ophthalmology & visual science 51:3993-4005; McDermott et al. (2018) Current eye research 43:1097-1101; Liu et al. (2013) Investigative ophthalmology & visual science 54:2541-2550]. Upon reaching 60% to 70% confluence, culture media were replaced by a 1:1 mixture of Dulbecco's modified Eagle's medium and Ham's F12 (DMEM/F12, Corning Life Sciences, Tewksbury, Mass.), supplemented with 10% fetal bovine serum (FBS, Atlanta Biologicals, Flowery Branch, Ga.) [Sullivan et al. (2014) Investigative ophthalmology & visual science 55:3866-3877; Liu et al. (2014) JAMA ophthalmology 132:226-228]. […] Culture plates of cells in the hypoxic condition were incubated inside hypoxia chambers filled with a premade 1% O2, 5% CO2 and 94% N2 gas mixture (Linde Gas North America, Hammond, Ind.), according to published protocols in Liu et al. (2019) The ocular surface 17(2):310-317 and Wright and Shay (2006) Nat Protoc 1:2088-2090. Following cell medium changes, the chambers were re-flushed with the gas mixture before returning to the incubator. […] Cell culture experiments (n=3 wells/treatment) were repeated at least 3 times.
[…] The cells were lysed in 2× Laemmli sample buffer (Bio-Rad Laboratories, Hercules, Calif.) and sonicated to extract nuclear protein [Andersen et al. (2002) Current biology: CB 12:1-11]. Human hepatocellular carcinoma cell lines (HepG2 cells) (America Type Culture Collection, Manassas, Va.), which express high concentration of HIF1α under CoCl2 stimulation for 4 hours [Yoo et al. (2014) Journal of cellular biochemistry 115:1147-1158], were used as a positive control for HIF1α antibody. The CoCl2 was purchased from Sigma-Aldrich Corp (St. Louis, Mo.). Cell lysates were then evaluated for HIF1α (1:1000, BD Biosciences, San Jose, Calif.) or β-actin (1:10,000, Cell Signaling Technology) expression. […]

HMGECs = experiment: Effect of low oxygen mimetic drugs on HMGEC function / lipid induction
DNase II = DNase II activity by single radial enzyme diffusion assay (SREDA) in IHMGECs
Method: After being treated with 21% O2, 1% O2, 10 μM Roxa or a combination for 10 days, cell numbers were counted with a hemocytometer and the cell lysates and cell culture supernatants were collected, as previously described in Liu et al. (2019) The ocular surface 17(2):310-317. DNase II activity in fresh samples was analyzed by SREDA in agarose gels according to published protocols in Liu et al. (2019) The ocular surface 17(2):310-317 and Oka et al. (2012) Nature 485:251-255. Cell lysates and culture media were used to measure the DNase II activity inside and outside of the cells, respectively [Liu et al. (2019) The ocular surface 17(2):310-317]. After incubation for 3-24 hours at 37° C., the area of the dark circle in the gel was measured under an UV trans-illuminator at 312 nm. For comparison between conditions, values were normalized to cell number.
Low O2 increases DNase II activity and promotes cell terminal differentiation of IHMGECs (Liu et al. Ocul Surf 2019; 17:310-317). To determine whether Roxa treatment can reproduce this hypoxic effect, IHMGECs were treated with Roxa in both normoxic and 1% O2 conditions for 10 days, prior to counting cell numbers and analyzing DNase II activity in cell lysates and supernatants.

[1] = Roxa alone, 21% O2, 10 days, normalized to cell number

For Cc1nc(C(=O)NCC(=O)O)c(O)c2ccc(Oc3ccccc3)cc12 [Roxa, roxadustat], the “HIF1α expression in IHMGECs, Roxa compared with low O2 alone” value (HIF1α; 21% O2, 6 hours, vs 1% O2 alone) was “significantly more HIF1α expression than low O2 alone”, the “HIF1α accumulation in IHMGECs, combination of Roxa and low O2” value (HIF1α; 6 hours) was “greatest accumulation” and the “HIF1α expression in IHMGECs (band intensity normalized to β-actin)” value (HIF1α; Roxa (10 μM elsewhere in the source), normoxic 21% O2, 6 hours, vs control) was “significantly increased”. The “lipid-inducing effect in HMGECs compared with other low oxygen mimetic drugs” value (HMGECs) was “stronger lipid-inducing effect”, the “DNase II activity in IHMGEC culture supernatants” value (DNase II; [1]) was “significantly increased” and the “DNase II activity in IHMGEC lysates” value (DNase II; [1]) was “significantly increased”. The “magnitude of DNase II activity increase, Roxa and low O2 combination” value (DNase II; Roxa in 1% O2, 10 days, lysates and supernatants, vs 1% O2 alone and Roxa alone) was “greatest”.
